Measured values as given in US20120178738A1, “DIBENZO [B,F] [1,4]OXAZAPINE COMPOUNDS” (ARYX THERAPEUTICS, INC., priority 2007, published 2012).

Key:
pig liver esterase = experiment: Metabolism by pig liver esterase with and without human plasma proteins; assay type: in vitro ADME
Protocol: The esterase-mediated metabolism of these compounds was studied using commercially available pig liver esterase in the presence and absence of human plasma proteins. The disappearance of parent was monitored over the time course of the incubations using a LC-UV detection system.
A stock solution and working stock solution was prepared for each proprietary compound as described for the human liver microsomal incubations. Working solutions of pig liver esterase in potassium phosphate buffer (10 mM, pH 7.4) and pig liver esterase in human plasma protein were prepared by dissolving pig liver esterase (2.51 mg) in the phosphate buffer or plasma protein solutions, respectively.
A set of three Eppendorf microfuge tubes (1.5 mL) was appropriately labeled. To each tube was added 1.5 mL of phosphate buffer, pig liver esterase in buffer, or pig liver esterase in human plasma protein solution. These solutions were pre-incubated (37° C., 900 rpm) and the reactions were initiated by adding an aliquot (37.5 μL) of the working solution of proprietary compound to each tube. An aliquot (100 μL) from each tube was removed at time 0, 5, 30, 60, and 120 min and added to a tube containing acetonitrile (200 μL) to stop the reaction.
The samples were centrifuged at 14000 g for 15 minutes at 4° C. The supernatant was transferred to clean labeled HPLC injection vials and stored at −80° C. until analyzed. An aliquot of the supernatant (25 μL) was injected onto the LC-UV system for analysis.

human M3 receptors = target: T1, human M3 receptors (Homo sapiens, UniProt P20309); experiment: hM3 receptor radioligand binding ([3H]NMS); details: for Ki: pKi reported on a scale of 1 through 5, read-out: M3 (pKi) (converted); for affinity to M3 receptors: in words
T1 construct: expressed in transfected cells; host or cells: Chinese hamster ovary cells (membranes)
T1 sequence (P20309 whole entry): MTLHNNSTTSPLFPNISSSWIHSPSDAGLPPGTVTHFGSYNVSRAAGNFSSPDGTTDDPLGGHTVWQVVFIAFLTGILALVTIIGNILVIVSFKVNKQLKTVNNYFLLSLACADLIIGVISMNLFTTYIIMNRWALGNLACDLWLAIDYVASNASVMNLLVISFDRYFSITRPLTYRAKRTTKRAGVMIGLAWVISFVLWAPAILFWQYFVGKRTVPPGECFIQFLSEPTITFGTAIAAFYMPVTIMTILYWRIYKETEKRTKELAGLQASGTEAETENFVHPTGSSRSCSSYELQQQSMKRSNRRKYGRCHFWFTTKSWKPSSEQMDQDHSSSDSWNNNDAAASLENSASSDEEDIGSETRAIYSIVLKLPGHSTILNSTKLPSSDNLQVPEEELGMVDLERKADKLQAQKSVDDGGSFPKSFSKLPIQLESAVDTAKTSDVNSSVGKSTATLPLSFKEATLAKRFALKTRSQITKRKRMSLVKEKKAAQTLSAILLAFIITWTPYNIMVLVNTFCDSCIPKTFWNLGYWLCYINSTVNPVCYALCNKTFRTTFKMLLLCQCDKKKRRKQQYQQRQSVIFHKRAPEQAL
Method in brief: (§1)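 Equilibrium competition against a fixed radioligand level, using membranes or tissues expressing the receptor and a concentration series of unlabelled compound. Binding was quantified from filtration-separated, nonspecific-corrected concentration-response relationships.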

[1] = Metabolism in pooled human liver microsomes; assay type: in vitro ADME; details: for half-life: pH 7.4, pooled human liver microsomes, disappearance of parent, read-out: HLMs t1/2; for HLMs Enzyme: enzyme type metabolising the compound in HLMs (with/without NADPH)
Protocol: Compounds were incubated in pooled human liver microsomes (HLMs) in the presence or absence of an NADPH-generating system. NADPH is required for the activity of cytochrome P450 (CYP) and other oxidative enzymes present in HLMs, but not for esterase activity. An additional incubation was carried out in the absence of HLM to assess compound stability. The disappearance of parent and the appearance of the corresponding acid metabolite were monitored over the time course of the incubations using LC-MS/MS.
A stock solution (20 mM) of each proprietary compound in DMSO was prepared and stored at −20° C. until needed. A working stock solution (0.2 mM) was prepared for each proprietary compound by adding an aliquot of the stock solution (10 μL) to acetonitrile (990 μL).
An aliquot of the HLM solution was removed from the −80° C. freezer and placed on ice. Tris Buffer (50 mM, pH 7.4) containing MgCl2 (hexahydrate, 5 mM) was pre-incubated in a 37° C. water bath. A set of Eppendorf microfuge tubes (1.5 mL) was appropriately labeled. To each tube was added Tris buffer with or without the NADPH generating system. An aliquot of pooled HLMs was added to all the incubations except those that were the buffer control.
Tubes were preincubated for 5 min in a shaking incubator bath (37° C., 900 rpm) and the reaction was initiated by adding an aliquot of the proprietary working solution (5 μL). The additions were timed carefully in order to coordinate the sample collections below. A small aliquot (50 μL) was removed at […] and delivered to the respective tubes containing dextrorphan (100 μL of 0.5 μg/mL solution) dissolved in methanol or acetonitrile. The samples were centrifuged at 14000 g for 15 minutes at 4° C. The supernatant was transferred to clean labeled HPLC injection vials and stored at −80° C. until analyzed. An aliquot of the supernatant (25 μL) was added to water (75 μL), mixed and injected onto the LC-MS/MS system for analysis. Results for some compounds of the invention can be found below in the table in Example 20.

human 5HT2C receptors = target: T2, human 5HT2C receptors (Homo sapiens, UniProt P28335); experiment: h5-HT2C receptor radioligand binding ([3H]Mesulergine); details: for Ki: pKi reported on a scale of 1 through 5; for binding to 5-HT2c: in words
T2 construct: expressed in transfected cells; host or cells: human embryo kidney cells (membranes)
T2 sequence (P28335 33-458): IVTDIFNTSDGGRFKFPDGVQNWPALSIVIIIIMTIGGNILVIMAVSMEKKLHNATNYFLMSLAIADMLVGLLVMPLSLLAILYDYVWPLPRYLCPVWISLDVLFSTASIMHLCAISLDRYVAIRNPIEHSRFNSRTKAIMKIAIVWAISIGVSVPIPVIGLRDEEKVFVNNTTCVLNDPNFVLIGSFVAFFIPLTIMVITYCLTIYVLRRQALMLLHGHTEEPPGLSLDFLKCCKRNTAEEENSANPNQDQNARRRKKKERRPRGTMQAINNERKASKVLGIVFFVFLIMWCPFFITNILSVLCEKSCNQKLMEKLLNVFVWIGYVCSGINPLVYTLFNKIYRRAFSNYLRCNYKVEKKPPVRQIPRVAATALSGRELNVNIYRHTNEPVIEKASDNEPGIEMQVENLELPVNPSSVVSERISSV
Method in brief: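 Test compound affinity was derived from concentration-dependent displacement of fixed [3H]mesulergine at equilibrium, after subtracting nonspecific binding measured with a reference blocker. Bound and free radioligand were separated by filtration of tissue or plasma-membrane preparations.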

human 5HT7 receptors = target: T3, human 5HT7 receptors (Homo sapiens, UniProt P34969); experiment: h5-HT7 receptor radioligand binding ([3H]5-CT); details: pKi reported on a scale of 1 through 5; read-out: 5HT7 (pKi) (converted)
T3 construct: expressed in transfected cells; host or cells: Chinese hamster ovary cells (membranes)
T3 sequence (P34969 whole entry): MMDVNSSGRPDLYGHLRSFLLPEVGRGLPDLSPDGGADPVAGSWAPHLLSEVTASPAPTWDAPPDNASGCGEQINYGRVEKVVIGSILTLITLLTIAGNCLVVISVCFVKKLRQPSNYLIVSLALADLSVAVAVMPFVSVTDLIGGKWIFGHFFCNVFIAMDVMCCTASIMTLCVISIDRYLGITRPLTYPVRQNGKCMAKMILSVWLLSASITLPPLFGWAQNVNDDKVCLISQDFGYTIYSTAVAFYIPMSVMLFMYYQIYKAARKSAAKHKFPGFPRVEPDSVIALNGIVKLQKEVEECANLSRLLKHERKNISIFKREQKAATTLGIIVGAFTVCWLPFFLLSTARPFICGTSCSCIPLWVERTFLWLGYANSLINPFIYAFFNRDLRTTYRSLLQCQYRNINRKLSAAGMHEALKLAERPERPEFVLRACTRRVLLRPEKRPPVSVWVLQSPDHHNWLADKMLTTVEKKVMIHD
Method in brief: as §1

[2] = pig liver esterase in potassium phosphate buffer, pH 7.4, pig liver esterase in phosphate buffer, no plasma protein
[3] = pig, pig liver esterase in human plasma protein solution

Row | Compound | half-life at 4.9 µM (pig liver esterase; [2]) | half-life at 4.9 µM (pig liver esterase; [3]) | Ki (human M3 receptors) | half-life [1] | Ki (human 5HT2C receptors) | affinity to M3 receptors (human M3 receptors) | Ki (human 5HT7 receptors) | binding to 5-HT2c (human 5HT2C receptors) | affinity for the 5-HT2c receptors, fold lower than clozapine (human 5HT2C receptors; relative to clozapine) | HLMs Enzyme [1] | Pig Liver Esterase (t1/2 min.) (+) plasma (pig liver esterase; pig liver esterase in human plasma protein solution) | Pig Liver Esterase (t1/2 min.) (−) plasma (pig liver esterase; pig liver esterase in phosphate buffer, no plasma protein)
1 | CC(C)OC(=O)CC1CN(C2=Nc3cc(Cl)ccc3Oc3ccccc32)CCN1 (stereo not shown) [L, (E)-isopropyl 2-(4-(8-chlorodibenzo[b,f][1,4]oxazepin-11-yl)piperazin-2-yl)acetate] | < 5 min | 30 min | > 10000 nM | 30 min | 10 to 97.7 nM | – | – | – | – | – | – | –
2 | CC(C)OC(=O)CC1CN(C2=Nc3ccc(F)cc3Oc3ccccc32)CCN1 (stereo not shown) [M, (E)-isopropyl 2-(4-(7-fluorodibenzo[b,f][1,4]oxazepin-11-yl)piperazin-2-yl)acetate] | < 5 min | 15 min | > 10000 nM | 30 min | 100 to 977 nM | – | – | – | – | – | – | –
3 | CCOC(=O)C[C@H]1CN(C2=Nc3cc(Cl)ccc3Oc3ccccc32)CCN1 [Compound K, (S,E)-ethyl 2-(4-(8-chlorodibenzo[b,f][1,4]oxazepin-11-yl)piperazin-2-yl)acetate] | – | – | > 10000 nM | – | 10 to 97.7 nM | very low affinity | 631 to 1550 nM | bind | 1.2 fold | – | – | –
4 | O=C(O)C[C@H]1CN(C2=Nc3cc(Cl)ccc3Oc3ccccc32)CCN1 [Compound Q, (S,E)-2-(4-(8-chlorodibenzo[b,f][1,4]oxazepin-11-yl)piperazin-2-yl)acetic acid] | – | – | > 10000 nM | – | 100 to 977 nM | very low affinity | – | bind | – | – | – | –
5 | CCOC(=O)CC1CN(C2=Nc3cc(Cl)ccc3Oc3ccccc32)CCN1 (stereo not shown) [A, (E)-ethyl 2-(4-(8-chlorodibenzo[b,f][1,4]oxazepin-11-yl)piperazin-2-yl)acetate] | < 5 min | 15 min | > 10000 nM | 30 min | 10 to 97.7 nM | – | – | – | – | Esterase | – | –
6 | O=C(C[C@H]1CN(C2=Nc3cc(Cl)ccc3Oc3ccccc32)CCN1)OC1CCOCC1 [DV, (S,E)-tetrahydro-2H-pyran-4-yl 2-(4-(8-chlorodibenzo[b,f][1,4]oxazepin-11-yl)piperazin-2-yl)acetate] | < 5 min | 15 min | > 10000 nM | 60 min | 10 to 97.7 nM | – | 1580 to 3890 nM | – | – | Esterase | – | –
7 | O=C(C[C@H]1CN(C2=Nc3cc(Cl)ccc3Oc3ccccc32)CCN1)O[C@H]1CCOC1 [EQ, (S)-tetrahydrofuran-3-yl 2-((S)-4-((E)-8-chlorodibenzo[b,f][1,4]oxazepin-11-yl)piperazin-2-yl)acetate] | 5 min | 30 min | – | 15 min | – | – | – | – | – | Esterase | – | –
8 | CCOC(=O)C[C@H]1CN(C2=Nc3cc(Cl)ccc3Oc3ccccc32)CCN1CCC(C)C [ER, (S,E)-ethyl 2-(4-(8-chlorodibenzo[b,f][1,4]oxazepin-11-yl)-1-isopentylpiperazin-2-yl)acetate] | < 5 min | 60 min | – | 5 min | – | – | – | – | – | Esterase | – | –
9 | O=C(C[C@H]1CN(C2=Nc3cc(Cl)ccc3Oc3ccccc32)CCN1)OC1CCCC1 [DR, (S,E)-cyclopentyl 2-(4-(8-chlorodibenzo[b,f][1,4]oxazepin-11-yl)piperazin-2-yl)acetate] | < 5 min | 15 min | > 10000 nM | 30 min | 10 to 97.7 nM | – | 1580 to 3890 nM | – | – | Esterase | – | –
10 | CN1CCN(C2=Nc3cc(Cl)ccc3Oc3ccccc32)C[C@@H]1CC(=O)NCC(F)(F)C(F)(F)F [EU, (S,E)-2-(4-(8-chlorodibenzo[b,f][1,4]oxazepin-11-yl)-1-methylpiperazin-2-yl)-N-(2,2,3,3,3-pentafluoropropyl)acetamide] | – | – | – | 60 min | – | – | – | – | – | – | Stable | Stable
11 | CCC(C)OC(=O)C[C@H]1CN(C2=Nc3cc(Cl)ccc3Oc3ccccc32)CCN1C (stereo partly drawn) [DY, sec-butyl 2-((S)-4-((E)-8-chlorodibenzo[b,f][1,4]oxazepin-11-yl)-1-methylpiperazin-2-yl)acetate] | < 5 min | 30 min | > 10000 nM | < 5 min | 100 to 977 nM | – | > 10000 nM | – | – | Esterase | – | –
12 | CCOC(=O)CC1CN(C2=Nc3ccc(F)cc3Oc3ccccc32)CCN1 (stereo not shown) [J, (E)-ethyl 2-(4-(7-fluorodibenzo[b,f][1,4]oxazepin-11-yl)piperazin-2-yl)acetate] | < 5 min | 15 min | > 10000 nM | 10 min | 100 to 977 nM | – | – | – | – | Esterase | – | –
